Results: patent US20260174875A1 (Novo Nordisk A/S, priority 2023, published 2026)
Read-outs that look alike come from different tables or passages of the source.

Columns and labels:
Assay type in all cases: cell-based
[1] = target: T1, human GLP-1 receptor (hGLP-1R) (Homo sapiens, UniProt P43220); experiment: GLP-1 receptor assay, method B (CRE-luciferase reporter, BHK cells, 384-well)
T1 construct: expressed in transfected cells
Procedure: Cells at approximately 80-90% confluence were washed once in PBS (Gibco 14190-094) and loosened from the cell flasks with Versene (Gibco, 15040-033). […] Cells were aliquoted and stored at −180° C. until use.
The assay buffer consisted of DMEM without phenol red (Gibco, 11880-028) supplemented with 1× GlutaMAX (Gibco, 35050-038), 10 mM HEPES (Gibco, 15630-056), 1% (w/v) ovalbumin (Sigma, A5503) and 0.1% (v/v) Pluronic F-68 (Gibco, 24040-032) either with HSA or without HSA (Sigma, A9511).
Serial dilutions were transferred to a 384-well assay plate (PerkinElmer/Revvity, 6007688) and mixed with an equal volume (10 μL) of assay buffer without or with 3% (w/v) HSA (Sigma, A-9511). Frozen stocks of hGLP-1R BHK Cre-Luc cells were thawed in a 37° C. water bath, washed once in PBS (Gibco 14190-094), diluted to 1.5×10^5 (1.5E+5) cells/mL in assay buffer (without HSA) and added (10 μL) to each well of the 384-well assay plate. After a short centrifugation, the assay plates were incubated for 3 hours at 37° C. in 5% CO2 and let to equilibrated at room temperature for 10 minutes before the addition of 30 μL steadylite Plus™ PerkinElmer/Revvity, 6066759) per well. Plates were sealed and incubated at room temperature with gentle shaking for 30 minutes while protected from light. Luminescence was detected on a luminescence plate reader e.g. a Synergy 2 (BioTek).

[2] = target: T2, human GIP receptor (hGIPR) (Homo sapiens, UniProt P48546); experiment: GIP receptor assay, method B (CRE-luciferase reporter, BHK cells, 384-well)
T2 construct: expressed in transfected cells
T2 sequence (P48546 22-466): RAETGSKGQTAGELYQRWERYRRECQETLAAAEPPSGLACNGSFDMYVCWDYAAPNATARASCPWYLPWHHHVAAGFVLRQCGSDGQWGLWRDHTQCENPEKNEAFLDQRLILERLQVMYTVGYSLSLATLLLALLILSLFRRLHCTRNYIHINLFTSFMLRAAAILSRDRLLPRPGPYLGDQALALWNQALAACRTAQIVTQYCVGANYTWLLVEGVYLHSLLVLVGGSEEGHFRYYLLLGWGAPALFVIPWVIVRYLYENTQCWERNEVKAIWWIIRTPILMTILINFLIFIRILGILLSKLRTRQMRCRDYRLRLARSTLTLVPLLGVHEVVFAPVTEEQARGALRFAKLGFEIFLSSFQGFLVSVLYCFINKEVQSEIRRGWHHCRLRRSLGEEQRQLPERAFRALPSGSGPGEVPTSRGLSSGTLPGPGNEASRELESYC

[3] = target: T3, human amylin receptor (hAMYR3) (Homo sapiens, UniProt O60896+P30988); experiment: Amylin receptor assay, method B (CRE-luciferase reporter, BHK cells)
T3 construct: host or cells: BHK cells (Hollex-1 line expressing hCTR(a) and CRE-Luc), further transfected with human RAMP3
T3 sequence (P30988 25-474): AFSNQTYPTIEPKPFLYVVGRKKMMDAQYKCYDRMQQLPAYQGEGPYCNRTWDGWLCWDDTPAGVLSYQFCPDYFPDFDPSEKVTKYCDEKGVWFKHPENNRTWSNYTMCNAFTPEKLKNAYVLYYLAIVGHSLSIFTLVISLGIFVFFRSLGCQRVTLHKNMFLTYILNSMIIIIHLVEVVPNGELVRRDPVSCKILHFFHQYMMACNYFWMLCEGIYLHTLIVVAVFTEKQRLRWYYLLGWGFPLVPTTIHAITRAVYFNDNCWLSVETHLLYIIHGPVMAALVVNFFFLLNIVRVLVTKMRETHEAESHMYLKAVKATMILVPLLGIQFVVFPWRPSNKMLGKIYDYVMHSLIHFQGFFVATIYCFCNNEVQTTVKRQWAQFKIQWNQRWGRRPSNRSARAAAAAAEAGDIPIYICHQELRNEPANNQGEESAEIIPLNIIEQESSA
T3 sequence (O60896 24-148): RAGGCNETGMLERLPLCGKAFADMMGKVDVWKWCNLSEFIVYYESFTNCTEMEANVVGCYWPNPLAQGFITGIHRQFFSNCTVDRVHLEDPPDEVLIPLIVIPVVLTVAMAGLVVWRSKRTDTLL
Procedure: To assess how the activation of the receptors is potentially influenced by the presence of human serum albumin (HSA), the in vitro assays were performed in the absence of HSA and presence of 1% (w/v) HSA.
It is thus possible to measure hAMYR3 activity using a CRE-luciferase reporter gene introduced into Baby Hamster Kidney (BHK) cells co-expressing the hAMYR3.
The cell line was further transfected with human receptor modifying protein 3 (RAMP3) using standard methods.
After centrifugation, the cell pellet was resuspended and diluted to approximately 2.5-4.0×10^6 (2.5E+6 to 4.0E+6) cells/mL in Recovery™ Cell Culture Freezing Medium (Gibco, 12648-010). Cells were aliquoted and stored at −180° C. until use.
The assay buffer consisted of DMEM without phenol red (Gibco, 11880-028) supplemented with 1× GlutaMAX (Gibco, 35050-038), 10 mM HEPES (Gibco, 15630-056) and 1% (w/v) ovalbumin (Sigma, A5503) either with or without 0.1% (v/v) Pluronic F-68 (Gibco, 24040-032) and either with or without HSA (Sigma, A9511).
To perform the assay, hAMYR3 BHK Cre-Luc cells were thawed, washed once in PBS (Gibco 14190-094) and seeded in 40 μL growth medium in a white 384-well culture plate (PerkinElmer/Revvity, 6007688) at a cell density of 4.0×10^3 (4.0E+3) cells/well the day before the experiment. The plate was incubated over night at 37° C. in 5% CO2. […] Serial dilutions were then mixed in a new 96-well plate with equal volume (1:1:1 ratio) of assay buffer and either assay buffer without or with 3% HSA (Sigma, A-9511). Twenty microliters of the solution mix were transferred to the cells which previously were washed once with PBS (Gibco 14190-094). After a short centrifugation, the assay plates were incubated for 3 hours at 37° C. in 5% CO2 and let to equilibrated at room temperature for 10 minutes before the addition of 30 μL steadylite Plus™ PerkinElmer/Revvity, 6066759) per well. Plates were sealed and incubated at room temperature with gentle shaking for 30 minutes while protected from light. Luminescence was detected on a luminescence plate reader e.g., a Synergy 2 (BioTek).

[4] = hGLP-1R Potency, 1% HSA, EC50, methods B, in the presence of 1% HSA
[5] = method B, absence of HSA, read-out: hGLP-1R Potency, no HSA, EC50
[6] = hGIPR Potency, 1% HSA, EC50, methods B, in the presence of 1% HSA
[7] = method B, absence of HSA, read-out: hGIPR Potency, no HSA, EC50
[8] = hAMYR3 Potency, 1% HSA, EC50, methods B, in the presence of 1% HSA
[9] = method B, absence of HSA, read-out: hAMYR3 Potency, no HSA, EC50

T1 sequence (P43220 24-463): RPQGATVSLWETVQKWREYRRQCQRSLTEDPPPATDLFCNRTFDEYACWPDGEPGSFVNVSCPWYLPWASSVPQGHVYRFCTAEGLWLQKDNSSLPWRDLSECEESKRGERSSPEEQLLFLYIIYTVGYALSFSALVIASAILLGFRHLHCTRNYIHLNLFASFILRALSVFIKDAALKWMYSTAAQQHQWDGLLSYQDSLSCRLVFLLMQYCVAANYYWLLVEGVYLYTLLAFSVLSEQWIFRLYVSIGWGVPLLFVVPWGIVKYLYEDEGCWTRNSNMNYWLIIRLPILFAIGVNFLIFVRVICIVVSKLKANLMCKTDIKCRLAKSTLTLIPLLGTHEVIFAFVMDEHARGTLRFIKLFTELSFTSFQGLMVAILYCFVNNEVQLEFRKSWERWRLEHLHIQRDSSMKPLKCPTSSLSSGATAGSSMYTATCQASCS

Row | EC50 [1, 4] [nM] | EC50 [1, 5] [nM] | EC50 [2, 6] [nM] | EC50 [2, 7] [nM] | EC50 [3, 8] [nM] | EC50 [3, 9] [nM] | SMILES
1 | 0.0674 | 0.0224 | 0.0114 | 0.00383 | 0.914 | 0.0085 | CC[C@H](C)[C@H](NC(=O)[C@H](CCC(=O)O)NC(=O)[C@H](CCC(=O)O)NC(=O)[C@H](CC(C)C)NC(=O)[C@H](CC(C)C)NC(=O)[C@@H](NC(=O)[C@H](CO)NC(=O)[C@H](Cc1ccc(O)cc1)NC(=O)[C@H](CC(=O)O)NC(=O)[C@H](CO)NC(=O)[C@@H](NC(=O)[C@H](Cc1ccccc1)NC(=O)[C@@H](NC(=O)CNC(=O)[C@H](CCC(=O)O)NC(=O)C(C)(C)NC(=O)[C@@H](N)Cc1ccc(O)cc1)[C@@H](C)O)[C@@H](C)O)[C@@H](C)CC)C(=O)N[C@@H](C)C(=O)N[C@@H](C)C(=O)N[C@@H](CCCNC(=N)N)C(=O)N[C@@H](CCC(=O)O)C(=O)N[C@@H](Cc1ccccc1)C(=O)N[C@H](C(=O)N[C@@H](CCC(=O)O)C(=O)N[C@@H](Cc1c[nH]c2ccccc12)C(=O)N[C@@H](CC(C)C)C(=O)N[C@@H](CC(C)C)C(=O)N[C@@H](C)C(=O)NCC(=O)NCC(=O)N1CCC[C@H]1C(=O)N[C@@H](CO)C(=O)N[C@@H](CO)C(=O)NCC(=O)N[C@@H](C)C(=O)NCC(=O)N[C@@H](CCC(N)=O)C(=O)N[C@@H](C)C(=O)N1CCC[C@H]1C(=O)NCC(=O)N[C@@H](CCC(=O)O)C(=O)N[C@@H](C)C(=O)N1CCC[C@H]1C(=O)NCC(=O)N[C@@H](C)C(=O)N[C@@H](CO)C(=O)N[C@@H](Cc1c[nH]cn1)C(=O)N[C@@H](CC(C)C)C(=O)N[C@@H](CO)C(=O)N[C@H](C(=O)N[C@@H](C)C(=O)N[C@@H](CCC(N)=O)C(=O)N[C@H](C(=O)N[C@@H](CCC(N)=O)C(=O)N[C@@H](CCCNC(=N)N)C(=O)N[C@@H](CC(C)C)C(=O)N[C@@H](CO)C(=O)N[C@@H](C)C(=O)N[C@@H](CCC(=O)O)C(=O)N[C@@H](CC(C)C)C(=O)N[C@@H](Cc1c[nH]cn1)C(=O)N[C@@H](CCCCNC(=O)COCCOCCNC(=O)COCCOCCNC(=O)CC[C@H](NC(=O)CCCCCCCCCCCCCCCCCCC(=O)O)C(=O)O)C(=O)N[C@@H](CC(C)C)C(=O)N[C@@H](C)C(=O)N[C@H](C(=O)N[C@@H](CC(C)C)C(=O)N1CCC[C@H]1C(=O)N[C@@H](CCCNC(=N)N)C(=O)N[C@H](C(=O)N[C@@H](CCC(=O)O)C(=O)N[C@H](C(=O)NCC(=O)N[C@@H](CO)C(=O)NCC(=O)N[C@@H](CO)C(=O)N1CCC[C@H]1C(N)=O)[C@@H](C)O)[C@@H](C)O)[C@@H](C)O)[C@@H](C)O)[C@@H](C)O)[C@@H](C)CC [Compound 152]
2 | 0.17 | 0.0233 | 0.0255 | 0.00436 | 1.35 | 0.01 | CC[C@H](C)[C@H](NC(=O)[C@H](CCC(=O)O)NC(=O)[C@H](CCC(=O)O)NC(=O)[C@H](CC(C)C)NC(=O)[C@H](CC(C)C)NC(=O)[C@@H](NC(=O)[C@H](CO)NC(=O)[C@H](Cc1ccc(O)cc1)NC(=O)[C@H](CC(=O)O)NC(=O)[C@H](CO)NC(=O)[C@@H](NC(=O)[C@H](Cc1ccccc1)NC(=O)[C@@H](NC(=O)CNC(=O)[C@H](CCC(=O)O)NC(=O)C(C)(C)NC(=O)[C@@H](N)Cc1ccc(O)cc1)[C@@H](C)O)[C@@H](C)O)[C@@H](C)CC)C(=O)N[C@@H](C)C(=O)N[C@@H](C)C(=O)N[C@@H](CCCNC(=N)N)C(=O)N[C@@H](CCC(=O)O)C(=O)N[C@@H](Cc1ccccc1)C(=O)N[C@H](C(=O)N[C@@H](CCC(=O)O)C(=O)N[C@@H](Cc1c[nH]c2ccccc12)C(=O)N[C@@H](CC(C)C)C(=O)N[C@@H](CC(C)C)C(=O)N[C@@H](C)C(=O)NCC(=O)NCC(=O)N1CCC[C@H]1C(=O)N[C@@H](CO)C(=O)N[C@@H](CO)C(=O)NCC(=O)N[C@@H](C)C(=O)NCC(=O)N[C@@H](C)C(=O)N[C@@H](CO)C(=O)N[C@@H](Cc1c[nH]cn1)C(=O)N[C@@H](CC(C)C)C(=O)N[C@@H](CO)C(=O)N[C@H](C(=O)N[C@@H](C)C(=O)N[C@@H](CCC(N)=O)C(=O)N[C@H](C(=O)N[C@@H](CCC(N)=O)C(=O)N[C@@H](CCCNC(=N)N)C(=O)N[C@@H](CC(C)C)C(=O)N[C@@H](CO)C(=O)N[C@@H](C)C(=O)N[C@@H](CCC(=O)O)C(=O)N[C@@H](CC(C)C)C(=O)N[C@@H](Cc1c[nH]cn1)C(=O)N[C@@H](CCCCNC(=O)COCCOCCNC(=O)COCCOCCNC(=O)CC[C@H](NC(=O)CCCCCCCCCCCCCCCCCCC(=O)O)C(=O)O)C(=O)N[C@@H](CC(C)C)C(=O)N[C@@H](C)C(=O)N[C@H](C(=O)N[C@@H](CCC(=O)O)C(=O)N1CCC[C@H]1C(=O)N[C@@H](CCCNC(=N)N)C(=O)N[C@H](C(=O)N[C@@H](CCC(=O)O)C(=O)N[C@H](C(=O)NCC(=O)N[C@@H](CO)C(=O)NCC(=O)N[C@@H](CO)C(=O)N1CCC[C@H]1C(N)=O)[C@@H](C)O)[C@@H](C)O)[C@@H](C)O)[C@@H](C)O)[C@@H](C)O)[C@@H](C)CC [Compound 179]
3 | 0.0653 | 0.0262 | 0.0107 | 0.00299 | 0.961 | 0.00761 | CC[C@H](C)[C@H](NC(=O)[C@H](CCC(=O)O)NC(=O)[C@H](CCC(=O)O)NC(=O)[C@H](CC(C)C)NC(=O)[C@H](CC(C)C)NC(=O)[C@@H](NC(=O)[C@H](CO)NC(=O)[C@H](Cc1ccc(O)cc1)NC(=O)[C@H](CC(=O)O)NC(=O)[C@H](CO)NC(=O)[C@@H](NC(=O)[C@H](Cc1ccccc1)NC(=O)[C@@H](NC(=O)CNC(=O)[C@H](CCC(=O)O)NC(=O)C(C)(C)NC(=O)[C@@H](N)Cc1ccc(O)cc1)[C@@H](C)O)[C@@H](C)O)[C@@H](C)CC)C(=O)N[C@@H](C)C(=O)N[C@@H](C)C(=O)N[C@@H](CCCNC(=N)N)C(=O)N[C@@H](CCC(=O)O)C(=O)N[C@@H](Cc1ccccc1)C(=O)N[C@H](C(=O)N[C@@H](CCC(=O)O)C(=O)N[C@@H](Cc1c[nH]c2ccccc12)C(=O)N[C@@H](CC(C)C)C(=O)N[C@@H](CC(C)C)C(=O)N[C@@H](C)C(=O)NCC(=O)NCC(=O)N1CCC[C@H]1C(=O)N[C@@H](CO)C(=O)N[C@@H](CO)C(=O)NCC(=O)N[C@@H](C)C(=O)NCC(=O)N[C@@H](CCC(N)=O)C(=O)N[C@@H](C)C(=O)N[C@@H](CCC(=O)O)C(=O)NCC(=O)N[C@@H](CCC(N)=O)C(=O)N[C@@H](C)C(=O)N1CCC[C@H]1C(=O)NCC(=O)N[C@@H](C)C(=O)N[C@@H](CO)C(=O)N[C@@H](Cc1c[nH]cn1)C(=O)N[C@@H](CC(C)C)C(=O)N[C@@H](CO)C(=O)N[C@H](C(=O)N[C@@H](C)C(=O)N[C@@H](CCC(N)=O)C(=O)N[C@H](C(=O)N[C@@H](CCC(N)=O)C(=O)N[C@@H](CCCNC(=N)N)C(=O)N[C@@H](CC(C)C)C(=O)N[C@@H](CO)C(=O)N[C@@H](C)C(=O)N[C@@H](CCC(=O)O)C(=O)N[C@@H](CC(C)C)C(=O)N[C@@H](Cc1c[nH]cn1)C(=O)N[C@@H](CCCCNC(=O)COCCOCCNC(=O)COCCOCCNC(=O)CC[C@H](NC(=O)CCCCCCCCCCCCCCCCCCC(=O)O)C(=O)O)C(=O)N[C@@H](CC(C)C)C(=O)N[C@@H](C)C(=O)N[C@H](C(=O)N[C@@H](CC(C)C)C(=O)N1CCC[C@H]1C(=O)N[C@@H](CCCNC(=N)N)C(=O)N[C@H](C(=O)N[C@@H](CCC(=O)O)C(=O)N[C@H](C(=O)NCC(=O)N[C@@H](CO)C(=O)NCC(=O)N[C@@H](CO)C(=O)N1CCC[C@H]1C(N)=O)[C@@H](C)O)[C@@H](C)O)[C@@H](C)O)[C@@H](C)O)[C@@H](C)O)[C@@H](C)CC [Compound 150]
